Experimental data from patent publication US20250177478A1, “G ALPHA Q/11 INHIBITORS FOR USE AS AN ANALGESIC” (University of Florida Research Foundation, Incorporated, priority 2022, published 2025).
Positions of bridges follow the written chain, without caps; N, C: chain ends. Non-standard residues stand in square brackets, D forms with d. Residues, ends and D or L forms follow the SMILES beside them. Leu(3R-O(AcLeu(3R-OH))) = CC(=O)N[C@H](C(=O)O[C@H](C(C)C)[C@H](N)C(=O)O)[C@H](O)C(C)C; NMeT = CN[C@H](C(=O)O)[C@@H](C)O; dPhLac = O=C(O)[C@H](O)Cc1ccccc1; NMeA = CN[C@@H](C)C(=O)O; NMeDha = C=C(NC)C(=O)O

Experiments:
C57BL/6 mice [1] = assay: Tail immersion test (54° C), spinal analgesia; format: in vivo, mouse; conditions: for anti-nociceptive response in tail flick (tail immersion) test: subcutaneous
Excerpt: (§1) A. Experimental animals. C57BL/6 mice (6-8 weeks old) of both sexes were used. Mice were housed in groups on a 12-h light-dark cycle (6:00 am light cycle; 6:00 pm dark cycle) with food (Teklad Global 16% protein rodent diets; Envigo Inc., WI, USA) and water available ad libitum. Animal groups were compiled to ensure minimization of factors (e.g., weight, sex, and health). Mice were within 20-28 g in weight at start of all studies. All tested groups contained a control group and consisted of male and female mice. Males and females were tested on the same day but at different times so that they were not in the room at the same time. All the experiments were tested during the light cycle between 8:00 am and 3:00 pm to avoid any long-term disruption of sleep cycles. Mice were transferred to the behavioural testing room at least 45 min before the first test to acclimatize. Following behavioural evaluation, animals were killed by CO2 inhalation, followed by cervical dislocation and postmortem decapitation.
(§2) B. Drug treatments. […] The dose of YM-254890 for subcutaneous injection was taken from previous published studies. The dose of morphine selected for subcutaneous administration (2.5, 5 and 10 mg kg-1) is commonly used in mouse analgesia. For the combined administration of morphine and YM-254890 on thermal anti-nociception, YM-254890 was administered 10 min before the morphine. The latency of response was measured before injection of drugs (baseline latency response) and at different time intervals (post-treatment latency response) after drugs injection.
(§3) C. Intrathecal injections. Intrathecal (i.t.) administration was performed following the method described previously (Hylden J L et al. “Intrathecal morphine in mice: a new technique.” Eur J Pharmacol (1980) 67:313-316; Li D et al. “Direct Intrathecal Injection of Recombinant Adeno-associated Viruses in Adult Mice.” J Vis Exp (2019)) with slight modifications. All intrathecal injections were performed using a 25 μL Hamilton syringe with a 30-gauge needle. The injection volume was 5 μL for each mouse. […] Each solution was injected without injection cannulae. Intrathecal injections were made into the L5-L6 intervertebral space of unanesthetized mice. The flick of the tail was considered indicative of a successful i.t. administration.
(2) Tail Immersion test. Anti-nociception induced by YM-254890 or evaluation of morphine's analgesic effects was determined by tail immersion test. The test was performed as previously described (Wang et al. 2019). Individual mice were transferred to experimentation room and restrained using a well-ventilated 50-ml tube with air holes. In order to minimize handling and to facilitate both the drug delivery and testing, each mouse was comfortably positioned in the plastic restrainer tubes with both fore paws and hind paws extending through holes at the bottom of the restrainer. All animals were habituated to restraint 1 h for 3 days prior to behaviour test. […] Once the animal was immobilized (within 25-30 s), two thirds of the entire tail was dipped in water bath heated to 54° C.

C57BL/6 mice [2] = tested on: C57BL/6 mice
Excerpt: as §1, §2, §3

C57BL/6 mice [3] = assay: Hot plate test (52.5° C), anti-nociception; format: in vivo, mouse
Excerpt: as §1, §2
D. Intracerebral injections. Intracerebroventricular administration was performed following the method described previously with slight modifications (Haley T J et al. “Pharmacological effects produced by intracerebral injection of drugs in the conscious mouse.” British Journal of Pharmacology and Chemotherapy, (1957) 12:12-15; Narita M et al. “Reduced expression of a novel μ-opioid receptor (MOR) subtype MOR-1B in CXBK mice: Implications of MOR-1B in the expression of MOR-mediated responses.” The European Journal of Neuroscience (2003) 18:3193-3198)). On the day of the drug/vehicle injection or on the day of behavioural test, the mouse was secured at the nape of the neck and head by the investigator's thumb and forefinger, and head of the mouse was held against a V-shaped holder. A 27-gauge hypodermic needle attached with 25 μL. Hamilton microsyringe was inserted perpendicularly into the unilateral injection site into the hole with the depth of 3.5 mm. The injection volume was 4 μL.
(1) Hot Plate test. Animals were tested for the assessment of anti-nociception and analgesic effects of morphine using a hotplate set to 52.5° C. The assay was performed as described previously (Bannon A W et al. “Models of nociception: Hotplate, tail-flick, and formalin tests in rodents.” In Current Protocols in Neuroscience, Chapter 8: Unit 8.9. Wiley (2007); Wang D et al. “Genetic behavioral screen identifies an orphan anti-opioid system.” Science (2019) 365:1267-1273). Mice were placed in a Plexiglas chamber (16″ tall and 8″ in diameter) on a ceramic plate heated to 52.5° C. and the timer started.

[4] = YM-254890 0.5 mg·kg−1 s.c. 10 min before morphine 5 mg/kg s.c.
[5] = YM-254890 s.c. with morphine 5 mg/kg s.c., all animals

## C=C1C(=O)N[C@@H](C)C(=O)N(C)[C@@H](C)C(=O)N[C@@H]([C@H](OC(=O)[C@@H](NC(C)=O)[C@H](O)C(C)C)C(C)C)C(=O)N(C)[C@@H]([C@@H](C)OC)C(=O)O[C@H](C)[C@H](NC(C)=O)C(=O)O[C@H](Cc2ccccc2)C(=O)N1C [YM-254890] (Ac-T[dPhLac][NMeDha]A[NMeA][Leu(3R-O(AcLeu(3R-OH)))][NMeT](Me); ester 1-C)
C57BL/6 mice [1]; YM-254890 0.25 mg kg-1 s.c. 10 min before morphine 5 mg/kg s.c.
  effect on morphine analgesia, tail immersion test: eliminated this effect
C57BL/6 mice [1]; [4]
  effect on morphine analgesia, tail immersion test: significant enhancement of the anti-nociceptive effects of morphine
C57BL/6 mice [1]; YM-254890 alone, intrathecal, 3.0 and 4.5 nmol
  time to return to baseline nociception, tail immersion test: about 2 h
C57BL/6 mice [1]; YM-254890 alone, intrathecal, 3.0 to 4.5 nmol (ceiling effect)
  magnitude of anti-nociceptive effect upon increasing the dose, tail immersion test: did not change
C57BL/6 mice [1]; YM-254890 alone, intrathecal, doses above 1.5 nmol per injection
  anti-nociception in tail immersion test, intrathecal: significant anti-nociceptive properties
C57BL/6 mice [1]; YM-254890 alone, highest dose 1 mg·kg−1
  anti-nociceptive response in tail flick (tail immersion) test: significant anti-nociceptive response
C57BL/6 mice [1]; YM-254890 alone, lower doses (0.1, 0.3, 0.5 mg/kg)
  anti-nociceptive response in tail flick (tail immersion) test: no significant difference in nociceptive response
C57BL/6 mice [1]; YM-254890 intrathecal 0.5 nmol (lowest subthreshold dose) 10 min before morphine 2.5 mg/kg s.c.
  effect on systemic morphine analgesia, tail immersion test: significantly enhance the anti-nociceptive effects of morphine
C57BL/6 mice [1]; YM-254890 intrathecal 0.5, 1.5, 3.0, 4.5 nmol with morphine 2.5 mg/kg s.c.
  dose dependence of enhancement of morphine analgesia, tail immersion test: increased dose dependently until maximizing at the cut-off value for the test
C57BL/6 mice [1]; YM-254890 intrathecal, at each of the doses, with morphine 2.5 mg/kg s.c.
  maximal extent and duration of morphine analgesia, tail immersion test: both the maximal extent and duration of the analgesic effects of morphine were increased
C57BL/6 mice [2]; YM-254890 0.5 mg/kg s.c. 10 min before morphine 5 mg/kg s.c., 120 min
  effect on morphine locomotor-sensitizing effect, open-field test: completely suppressed these effects
C57BL/6 mice [2]; YM-254890 0.5 mg/kg s.c. with morphine 5 mg/kg s.c., comparable with YM-254890 alone
  locomotion in open-field test: substantial decrease in locomotion
C57BL/6 mice [2]; YM-254890 intrathecal 3.0 nmol, alone or in combination with morphine 2.5 mg/kg s.c., 120 min
  motor activity in open-field test after intrathecal delivery: no significant changes in motor activity
C57BL/6 mice [3]; YM-254890 0.25 mg·kg−1 s.c. (subthreshold) 10 min before morphine 5 mg/kg s.c.
  effect on opioid-induced analgesia, hotplate test: significantly potentiated anti-nociceptive effects
C57BL/6 mice [3]; [4]
  effect on opioid-induced analgesia, hotplate test: further enhancement of opioid analgesia
C57BL/6 mice [3]; YM-254890 0.25 or 0.5 mg·kg−1 s.c. with morphine 5 mg/kg s.c.
  effect on onset timing and duration of opioid analgesia, hotplate test: no effect on either the onset timing or duration of the opioid analgesia
C57BL/6 mice [3]; YM-254890 alone, subcutaneous, 0.5 and 1.0 mg·kg−1
  time of maximal analgesic response after injection, hotplate test: 30 min
C57BL/6 mice [3]; YM-254890 alone, subcutaneous, higher doses 0.5 and 1.0 mg·kg−1
  paw withdrawal latencies in hotplate test: produced increases in paw withdrawal latencies
C57BL/6 mice [3]; YM-254890 alone, subcutaneous, lower doses 0.1 and 0.3 mg·kg−1
  paw withdrawal latencies in hotplate test: No significant effect
C57BL/6 mice [3]; YM-254890 i.c.v. 0.4, 1.2, 4 nmol
  analgesia in hotplate test after delivery directly into the brain: dose-dependent increase in both the extent and duration of analgesia
C57BL/6 mice [3]; [5]
  time to reach maximal latencies, hotplate test: about 30 min
  time to recover to baseline nociceptive thresholds, hotplate test: about 3 h
